Source: PubChem BioAssay AID1963961 (Molecular Pharmacology Branch, DTP, NCI, 2024)

Tested on: K98450-129-R-PDC multicell spheroids, viability
Experiment: Anticancer human tumor K98450-129-R-PDC patient-derived colon adenocarcinoma cell line growth inhibition [PI3K]
Conditions: for IC50: curve of first compound; for viability, T/C: stronger effect = lower value; active = viability on the fitted dose curve at most 10% of control; inactive = the rest
From the text: Combinatorial screen of targeted agents with the PI3K inhibitors inavolisib, alpelisib, duvelisib, and copanlisib in multi-cell type tumor spheroids
A high-throughput screen of multi-cell type tumor spheroids was designed to identify active combinations of targeted small molecules and PI3K pathway inhibitors. Complex spheroids include a stromal component modeled by human endothelial cells (HUVEC) and fibroblasts modeled by human mesenchymal stem cells (MSCs). The concentration ranges selected for each drug and investigational agent were based upon clinically achievable concentrations if the clinical Cmax of the agent was known.
Compounds. The drugs and investigational agents: inavolisib (NSC800729), alpelisib (NSC765974), duvelisib (NSC772469), copanlisib (NSC816437), ipatasertib (NSC767898), afuresertib (NSC778305), talazoparib (NSC767125), sapanisertib (NSC764658), selumetinib (NSC741078), tovorafenib (DAY101, NSC766906), vemurafenib (NSC761431), ravoxertinib (NSC781343), sotorasib (NSC818433), MRTX1133 (NSC 836407), abemaciclib (NSC 768073), palbociclib (NSC758247), venetoclax (NSC 766270), SY5609 (NSC837396), enzalutamide (NSC755605), and darolutamide (NSC825331), were obtained from the National Cancer Institute (NCI) Developmental Therapeutics Program Chemical Repository. The FDA-approved anticancer drug set is available from the NCI Developmental Therapeutics Program. […] The stock solutions were prepared in dimethyl sulfoxide (DMSO, Sigma-Aldrich, St. Louis, MO, cat. D2650) at 800-fold the tested concentration and stored at -70 degrees C prior to their use. All drugs and investigational agents were tested over a range starting from a high concentration at or near the clinical Cmax and decreasing in half-log increments. If the clinical Cmax for an agent had not been determined, the highest concentration tested was 10 microM.
Cell Culture. All cells were maintained in an incubator at 37 degrees C and 5% CO2 with 95% humidity. The PDC lines were cultured according to standard operating procedures established by the NCI PDMR (https://pdmr.cancer.gov/sops/default.htm). All PDCs were thawed and cultured in Matrigel-coated flasks prepared with a working solution of 1X Ham's F-12 nutrient mix, without supplementation (Invitrogen, Waltham, MA, cat. 11765054), 100 U/mL penicillin-streptomycin (Invitrogen, cat. 15140122), and 2.5% Matrigel (Corning Inc., Corning, NY, cat. 354248) for the first three passages. The 354836-022-R-J1-PDC, 475296-252-R-J1-PDC, and 997726-040-R-J2-PDC lines were cultured in 6A media, which includes advanced DMEM/F-12 (Thermo Fisher Scientific, cat. 12634028), 10 mM HEPES (Thermo Fisher Scientific, cat. 15630080), 1X GlutaMAX supplement (Thermo Fisher Scientific, cat. 35050061), 0.1 mg/mL primocin (InvivoGen, San Diego, CA, cat. ant-pm-2), 10% defined fetal bovine serum, heat inactivated (HyClone Laboratories Inc., Logan, UT, cat. SH30070.03HI), 50% L-WRN conditioned media (ATCC, cat. CRL-3276), 1.25 mM N-Acetyl-L-cysteine (Sigma-Aldrich, cat. A9165), 10 mM nicotinamide (Sigma-Aldrich, cat. N0636), 1X B-27 supplement (Thermo Fisher Scientific, cat. 17504044), 1X N-2 supplement (Thermo Fisher Scientific, cat. 17502048), and 10 microM Y-27632 dihydrochloride (Tocris Bioscience, Bristol, United Kingdom, cat. 1254). The 624824-186-R-J2-PDC line was cultured in 6C/Colon 1B media, which includes all 6A media components plus 50 ng/mL human EGF recombinant protein (Thermo Fisher Scientific, cat. PHG0311). […]

[1] = second compound 0.00316 µM, first compound 0.0316 µM
[2] = second compound 0.00316 µM, first compound 0.1 µM
[3] = second compound 0.01 µM, first compound 0.0316 µM
[4] = second compound 0.01 µM, first compound 0.1 µM
[5] = second compound 0.0316 µM, first compound 0.0316 µM
[6] = second compound 0.0316 µM, first compound 0.1 µM
[7] = second compound 0.1 µM, first compound 0.0316 µM
[8] = second compound 0.1 µM, first compound 0.1 µM
[9] = second compound 0.316 µM, first compound 0.0316 µM
[10] = second compound 0.316 µM, first compound 0.1 µM
[11] = second compound 1 µM, first compound 0.0316 µM
[12] = second compound 1 µM, first compound 0.1 µM
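Note: spheroids exposed to agents for seven days before read-out.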

CC(=O)c1c(C)c2cnc(Nc3ccc(N4CCNCC4)cn3)nc2n(C2CCCC2)c1=O + CC(Nc1ccc2c(c1)OCCn1cc(N3C(=O)OCC3C(F)F)nc1-2)C(N)=O
inactive: viability, T/C (second compound 0.00316 µM, first compound 0.000316 µM) 113% | viability, T/C (second compound 0.00316 µM, first compound 0.001 µM) 103% | viability, T/C (second compound 0.00316 µM, first compound 0.00316 µM) 105% | viability, T/C (second compound 0.00316 µM, first compound 0.01 µM) 97.2% | viability, T/C [1] 99.9% | viability, T/C [2] 95.7% | viability, T/C (second compound 0.01 µM, first compound 0.000316 µM) 109% | viability, T/C (second compound 0.01 µM, first compound 0.001 µM) 101% | viability, T/C (second compound 0.01 µM, first compound 0.00316 µM) 104% | viability, T/C (second compound 0.01 µM, first compound 0.01 µM) 91.2% | viability, T/C [3] 103% | viability, T/C [4] 92.8% | viability, T/C (second compound 0.0316 µM, first compound 0.000316 µM) 111% | viability, T/C (second compound 0.0316 µM, first compound 0.001 µM) 95.7% | viability, T/C (second compound 0.0316 µM, first compound 0.00316 µM) 103% | viability, T/C (second compound 0.0316 µM, first compound 0.01 µM) 94.9% | viability, T/C [5] 100% | viability, T/C [6] 95.6% | viability, T/C (second compound 0.1 µM, first compound 0.000316 µM) 97.7% | viability, T/C (second compound 0.1 µM, first compound 0.001 µM) 100% | viability, T/C (second compound 0.1 µM, first compound 0.00316 µM) 92.7% | viability, T/C (second compound 0.1 µM, first compound 0.01 µM) 94.8% | viability, T/C [7] 99.1% | viability, T/C [8] 103% | viability, T/C (second compound 0.316 µM, first compound 0.000316 µM) 94.3% | viability, T/C (second compound 0.316 µM, first compound 0.001 µM) 96.5% | viability, T/C (second compound 0.316 µM, first compound 0.00316 µM) 100% | viability, T/C (second compound 0.316 µM, first compound 0.01 µM) 93.3% | viability, T/C [9] 103% | viability, T/C [10] 91.4% | viability, T/C (second compound 1 µM, first compound 0.000316 µM) 89% | viability, T/C (second compound 1 µM, first compound 0.001 µM) 95.8% | viability, T/C (second compound 1 µM, first compound 0.00316 µM) 94.1% | viability, T/C (second compound 1 µM, first compound 0.01 µM) 95.2% | viability, T/C [11] 96.1% | viability, T/C [12] 82%
> 0.1 µM: IC50 (second compound 0.00316 µM) | IC50 (second compound 0.01 µM) | IC50 (second compound 0.0316 µM) | IC50 (second compound 0.1 µM) | IC50 (second compound 0.316 µM) | IC50 (second compound 1 µM)

CCCS(=O)(=O)Nc1ccc(F)c(C(=O)c2c[nH]c3ncc(-c4ccc(Cl)cc4)cc23)c1F + CC(Nc1ccc2c(c1)OCCn1cc(N3C(=O)OCC3C(F)F)nc1-2)C(N)=O
inactive: viability, T/C [1] 113% | viability, T/C [2] 104% | viability, T/C (second compound 0.00316 µM, first compound 0.316 µM) 112% | viability, T/C (second compound 0.00316 µM, first compound 1 µM) 111% | viability, T/C (second compound 0.00316 µM, first compound 3.16 µM) 135% | viability, T/C (second compound 0.00316 µM, first compound 10 µM) 14.1% | viability, T/C [3] 117% | viability, T/C [4] 110% | viability, T/C (second compound 0.01 µM, first compound 0.316 µM) 114% | viability, T/C (second compound 0.01 µM, first compound 1 µM) 105% | viability, T/C (second compound 0.01 µM, first compound 3.16 µM) 148% | viability, T/C [5] 97% | viability, T/C [6] 105% | viability, T/C (second compound 0.0316 µM, first compound 0.316 µM) 100% | viability, T/C (second compound 0.0316 µM, first compound 1 µM) 105% | viability, T/C (second compound 0.0316 µM, first compound 3.16 µM) 136% | viability, T/C (second compound 0.0316 µM, first compound 10 µM) 10.4% | viability, T/C [7] 96.5% | viability, T/C [8] 102% | viability, T/C (second compound 0.1 µM, first compound 0.316 µM) 97.9% | viability, T/C (second compound 0.1 µM, first compound 1 µM) 101% | viability, T/C (second compound 0.1 µM, first compound 3.16 µM) 130% | viability, T/C (second compound 0.1 µM, first compound 10 µM) 10.7% | viability, T/C [9] 90.6% | viability, T/C [10] 93.7% | viability, T/C (second compound 0.316 µM, first compound 0.316 µM) 98.5% | viability, T/C (second compound 0.316 µM, first compound 1 µM) 98.4% | viability, T/C (second compound 0.316 µM, first compound 3.16 µM) 113% | viability, T/C (second compound 0.316 µM, first compound 10 µM) 10.5% | viability, T/C [11] 88.3% | viability, T/C [12] 88.8% | viability, T/C (second compound 1 µM, first compound 0.316 µM) 91.4% | viability, T/C (second compound 1 µM, first compound 1 µM) 97% | viability, T/C (second compound 1 µM, first compound 3.16 µM) 91.2% | viability, T/C (second compound 1 µM, first compound 10 µM) 12.5%
6.29 µM: IC50 (second compound 0.0316 µM)
6.2 µM: IC50 (second compound 0.1 µM)
5.78 µM: IC50 (second compound 1 µM)
active: viability, T/C (second compound 0.01 µM, first compound 10 µM) 8.38%
6.63 µM: IC50 (second compound 0.00316 µM)
6.48 µM: IC50 (second compound 0.01 µM)
5.98 µM: IC50 (second compound 0.316 µM)
